Source: patent US20180008587A1, “THIOHYDANTOIN ANDROGEN RECEPTOR ANTAGONISTS FOR THE TREATMENT OF CANCER” (Jaressen Pharmaceutica NV, priority 2016, published 2018)
Substitutions are numbered along the chain they refer to. Like-named read-outs stand apart in the source and are kept apart here.

Key:
Assay type in all cases: cell-based
[1] = biological target: T1, F876L mutant Androgen Receptor (AR-F876L) (Homo sapiens, UniProt P10275, F877L); assay: LNCaP-AR-F876L ANT reporter assay (ARE firefly luciferase, antagonist mode); details: for Emax: read-out: LNCaP-AR-F876L ANT MAX % Inh; for IC50: read-out: LNCaP-AR-F876L ANT pIC50 (converted)
T1 construct: expressed in transfected cells; host or cells: LNCaP (LNCaP F876L)
T1 sequence (P10275 1-920 F877L): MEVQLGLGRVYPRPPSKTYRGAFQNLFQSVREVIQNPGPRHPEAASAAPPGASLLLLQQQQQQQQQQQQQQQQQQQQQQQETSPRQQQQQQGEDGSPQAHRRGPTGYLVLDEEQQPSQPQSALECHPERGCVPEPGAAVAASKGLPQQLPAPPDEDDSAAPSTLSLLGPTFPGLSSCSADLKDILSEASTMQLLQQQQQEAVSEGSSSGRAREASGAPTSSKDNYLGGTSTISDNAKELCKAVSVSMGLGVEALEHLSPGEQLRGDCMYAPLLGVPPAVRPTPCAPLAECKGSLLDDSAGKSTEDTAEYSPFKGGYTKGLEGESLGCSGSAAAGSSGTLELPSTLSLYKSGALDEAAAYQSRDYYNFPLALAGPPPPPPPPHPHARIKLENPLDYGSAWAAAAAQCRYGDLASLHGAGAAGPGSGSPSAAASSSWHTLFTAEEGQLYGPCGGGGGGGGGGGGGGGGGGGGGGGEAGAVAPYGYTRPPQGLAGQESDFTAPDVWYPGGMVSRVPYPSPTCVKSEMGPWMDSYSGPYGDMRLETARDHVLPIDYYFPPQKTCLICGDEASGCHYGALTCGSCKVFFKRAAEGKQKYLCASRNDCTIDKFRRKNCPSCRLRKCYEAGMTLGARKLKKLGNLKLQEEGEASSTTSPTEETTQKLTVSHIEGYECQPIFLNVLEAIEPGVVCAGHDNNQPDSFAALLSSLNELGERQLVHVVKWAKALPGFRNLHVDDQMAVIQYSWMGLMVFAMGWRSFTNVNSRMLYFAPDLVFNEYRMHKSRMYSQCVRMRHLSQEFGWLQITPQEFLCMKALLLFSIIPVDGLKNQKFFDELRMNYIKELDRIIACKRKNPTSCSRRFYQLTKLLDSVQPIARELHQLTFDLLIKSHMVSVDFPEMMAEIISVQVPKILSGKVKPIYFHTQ
Outline: (§1)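 LNCaP cells stably expressing wild-type or F876L AR (puromycin-selected pooled populations) were cultured in charcoal-stripped serum medium. In antagonist mode, agonist challenge was 400 pM for wild-type and 600 pM for F876L.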

[2] = biological target: T2, wild-type Androgen Receptor (AR-wt) (Homo sapiens, UniProt P10275); assay: LNCaP-AR-wt AG reporter assay (ARE firefly luciferase, agonist mode); details: for Emax: read-out: LNCaP-AR-wt AG MAX % Stim
T2 construct: expressed in transfected cells; host or cells: LNCaP (LNCaP AR (cs))
T2 sequence (P10275 1-920): T1 sequence (P10275 1-920 F877L) with L877F
Outline: (§2)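 LNCaP stable pooled lines expressing ARE-firefly luciferase, in charcoal-stripped serum medium, were exposed to compounds; antagonist mode used agonist at 400 pM (WT) or 600 pM (F876L).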

[3] = biological target: T2, wild-type Androgen Receptor (AR-wt); assay: LNCaP-AR-wt ANT reporter assay (ARE firefly luciferase, antagonist mode); details: for IC50: antagonist mode, 400 pM R-1881 challenge, −Log10(IC50 [Molar]), read-out: LNCaP-AR-wt ANT pIC50 (converted); for Emax: read-out: LNCaP-AR-wt ANT MAX % Inh
Outline: as §1

[4] = biological target: T1, F876L mutant Androgen Receptor (AR-F876L); assay: LNCaP-AR-F876L AG reporter assay (ARE firefly luciferase, agonist mode); details: for Emax: read-out: LNCaP-AR-F876L AG MAX % Stim
Outline: as §2

[5] = maximum % inhibition of R1881 control response over tested concentration range
[6] = agonist mode, −Log10(EC50 [Molar]), read-out: LNCaP-AR-wt AG pEC50 (converted)
[7] = maximum % stimulation (agonist response) over tested concentration range
[8] = agonist mode, −Log10(EC50 [Molar]), read-out: LNCaP-AR-F876L AG pEC50 (converted)

Row | Compound | Emax [1, 5] | IC50 [1] | EC50 [2, 6] | Emax [2, 7] | IC50 [3] | Emax [3, 5] | EC50 [4, 8] | Emax [4, 7] | Emax [1] | EC50 [2] | Emax [2] | Emax [3] | EC50 [4] | Emax [4]
1 | CCCCNC(=O)c1ccc(N2C(=S)N(c3cnc(C#N)c(C(F)(F)F)c3)C(=O)C23CCC3)cc1F [Cpd 58, N-butyl-4-[6-[6-cyano-5-(trifluoromethyl)-3-pyridyl]-5-oxo-7-thioxo-6,8-diazaspiro[3.4]octan-8-yl]-2-fluoro-benzamide] | 98.2% | 204 nM | > 15100 nM | 0.1% | 245 nM | 102% | > 15100 nM | 0.6% |  |  |  |  |  | 
2 | N#Cc1ncc(N2C(=O)C3(CCC3)N(c3ccc(OCCN4CCCC4)c(F)c3)C2=S)cc1C(F)(F)F [Cpd 66, 5-[8-[3-fluoro-4-(2-pyrrolidin-1-ylethoxy)phenyl]-5-oxo-7-thioxo-6,8-diazaspiro[3.4]octan-6-yl]-3-(trifluoromethyl)pyridine-2-carbonitrile] | 96.2% | 603 nM | > 15100 nM | 0.6% | 1150 nM | 98.9% | > 15100 nM | 0.1% |  |  |  |  |  | 
3 | N#Cc1ncc(N2C(=O)C3(CCC3)N(c3ccc(C(=O)NCc4ccccn4)c(F)c3)C2=S)cc1C(F)(F)F [Cpd 44, 4-[6-[6-cyano-5-(trifluoromethyl)-3-pyridyl]-5-oxo-7-thioxo-6,8-diazaspiro[3.4]octan-8-yl]-2-fluoro-N-(2-pyridylmethyl)benzamide] |  | 178 nM |  |  | 195 nM |  |  |  | 101% | > 15100 nM | -0.2% | 103% | > 15100 nM | 0%
4 | CNC(=O)c1ccc(N2C(=S)N(c3cnc(C#N)c(C)c3)C(=O)C2(C)C)cc1F [Cpd 12, 4-[3-(6-cyano-5-methyl-3-pyridyl)-5,5-dimethyl-4-oxo-2-thioxo-imidazolidin-1-yl]-2-fluoro-N-methyl-benzamide] |  | 229 nM |  |  | 1740 nM |  |  |  | 98.7% | > 15100 nM | 0.9% | 98.4% | > 15100 nM | -0.3%
5 | Cc1cc(N2C(=O)C3(CCC3)N(c3ccc(C(=O)NCC4CCOCC4)c(F)c3)C2=S)cnc1C#N [Cpd 3, 4-[6-(6-cyano-5-methyl-3-pyridyl)-5-oxo-7-thioxo-6,8-diazaspiro[3.4]octan-8-yl]-2-fluoro-N-(tetrahydropyran-4-ylmethyl)benzamide] | 98.9% | 324 nM | > 15100 nM | 0.3% | 1350 nM | 99.6% | > 15100 nM | -0.3% |  |  |  |  |  | 
6 | N#Cc1ncc(N2C(=O)C3(CCC3)N(c3ccc(C(F)(F)F)cc3)C2=S)cc1C(F)(F)F [Cpd 98, 5-[5-oxo-7-thioxo-8-[4-(trifluoromethyl)phenyl]-6,8-diazaspiro[3.4]octan-6-yl]-3-(trifluoromethyl)pyridine-2-carbonitrile] | 98.9% | 245 nM | > 15100 nM | 0% | 295 nM | 102% | > 15100 nM | 1.6% |  |  |  |  |  | 
7 | N#Cc1ncc(N2C(=O)C3(CCC3)N(c3cccc(Oc4ccccc4)c3)C2=S)cc1C(F)(F)F [Cpd 20, 5-[5-oxo-8-(3-phenoxyphenyl)-7-thioxo-6,8-diazaspiro[3.4]octan-6-yl]-3-(trifluoromethyl)pyridine-2-carbonitrile] | 95.4% | 977 nM | > 15100 nM | 1.3% | 1320 nM | 90% | > 15100 nM | 0.2% |  |  |  |  |  | 
8 | Cc1cc(N2C(=O)C3(CCC3)N(c3ccc(C(=O)NC4CCOCC4)c(F)c3)C2=S)cnc1C#N [Cpd 2, 4-[6-(6-cyano-5-methyl-3-pyridyl)-5-oxo-7-thioxo-6,8-diazaspiro[3.4]octan-8-yl]-2-fluoro-N-tetrahydropyran-4-yl-benzamide] |  | 288 nM |  |  | 2240 nM |  |  |  | 99.3% | > 15100 nM | 0.8% | 98.1% | > 15100 nM | -0.4%
9 | CNC(=O)c1ccc(N2C(=S)N(c3cnc(C#N)c(C)c3)C(=O)C23CCC3)cc1C [Cpd 5, 4-[6-(6-cyano-5-methyl-3-pyridyl)-5-oxo-7-thioxo-6,8-diazaspiro[3.4]octan-8-yl]-N,2-dimethyl-benzamide] | 98.3% | 417 nM | > 15100 nM | 0.7% | 977 nM | 101% | > 15100 nM | -0.1% |  |  |  |  |  | 
10 | Cc1ccc(N2C(=S)N(c3cnc(C#N)c(C(F)(F)F)c3)C(=O)C23CCC3)cc1F [Cpd 115, 5-[8-(3-fluoro-4-methyl-phenyl)-5-oxo-7-thioxo-6,8-diazaspiro[3.4]octan-6-yl]-3-(trifluoromethyl)pyridine-2-carbonitrile] | 96.1% | 437 nM | > 15100 nM | 1.1% | 372 nM | 100% | > 15100 nM | 3.4% |  |  |  |  |  | 
11 | CN1CCC(Oc2ccc(N3C(=S)N(c4cnc(C#N)c(C(F)(F)F)c4)C(=O)C34CCC4)cc2F)CC1 [Cpd 28, 5-[8-[3-fluoro-4-[(1-methyl-4-piperidyl)oxy]phenyl]-5-oxo-7-thioxo-6,8-diazaspiro[3.4]octan-6-yl]-3-(trifluoromethyl)pyridine-2-carbonitrile] |  | 204 nM |  |  | 501 nM |  |  |  | 100% | > 15100 nM | -0.1% | 99.6% | > 15100 nM | 0%
12 | CN1CCC(Oc2ccc(N3C(=S)N(c4cnc(C#N)c(C(F)(F)F)c4)C(=O)C3(C)C)cc2)CC1 [Cpd 19, 5-[4,4-dimethyl-3-[4-[(1-methyl-4-piperidyl)oxy]phenyl]-5-oxo-2-thioxo-imidazolidin-1-yl]-3-(trifluoromethyl)pyridine-2-carbonitrile] |  | 525 nM |  |  | 871 nM |  |  |  | 98.1% | > 15100 nM | 0.3% | 99.6% | > 15100 nM | 0.2%
